This is an account of results in US8221738B2, “Method for enhanced uptake of viral vectors in the myocardium” (Celladon Corporation, priority 2008, dated 2012).

The subject of one data set is SERCA2a mRNA. The experiment in a line: SERCA2a mRNA expression via RT-PCR in heart sections, 30 day single dose tissue distribution study. It is filed as in vivo, Göttingen Minipigs. To be noted: nitroglycerin given with AAV1/SERCA2a; especially deep myocardial regions (septum, middle layer anterior wall). The protocol:
(§1) Administration on Day 0 was via the direct coronary infusion procedure described below. Animals from Groups 1-3 were dosed with a total volume of 12 mL of AAV1/SERCA2a solution which was infused at a constant rate of 1.2 mL/minute over a 10 minute period. Animals from Groups 3 and 4 received nitroglycerin as a bolus intracoronary injection immediately prior to administration of AAV1/SERCA2a. Animals from Group 3 were dosed with a total volume of 12 mL of AAV1/SERCA2a and nitroglycerin solution, which was infused at a constant rate of 1.2 mL/minute over a 10 minute period. Animals from Group 4 were dosed with a total volume of 12 mL of normal saline, which was infused at a constant rate of 1.2 mL/minute over a 10 minute period. The direct infusion system is composed of standard (commercially available) components including a conventional guide sheath, 0.014″ guide-wire, a 5F infusion (guide) catheter and two programmable syringe pumps. […]
Total mRNA and protein expression in the left ventricle of individual sections was calculated (sum of sections 1-10 in FIG. 1), and the septum (section #5 in FIG. 1), and the middle layer anterior wall (section #6 in FIG. 1) were also analyzed separately, as these regions represent deep myocardium, furthest from the site of infusion. […]

Data set [1] can be described thus: Hemodynamic monitoring (mean aortic/arterial pressure) during administration of AAV1/SERCA2a. To be noted: Groups 3 and 4 (nitroglycerin treated animals); maximum; except one time point in group 4. Format: in vivo, Göttingen Minipigs. The protocol:
as §1, with “pumps. The direct intracoronary infusion procedure began with introduction of the conventional guide sheath using a common carotid arterial or femoral arterial approach. The Coronary Infusion Catheter (e.g., Cordis Vista Brite Tip Guiding Catheter or similar model appropriate for cannulation of the left main coronary artery) was then placed in the left main coronary artery under fluoroscopic guidance.” for “pumps.”

Turning to `O=[N+]([O-])OCC(CO[N+](=O)[O-])O[N+](=O)[O-]` [nitroglycerin, glyceryl trinitrate], the vector uptake result in the data set on SERCA2a mRNA is “enhanced”. Further, the “decrease in Mean arterial pressure (MAP) compared to baseline” value in data set [1] is ≤ 6 mm Hg.
